# Experimental data from PubChem BioAssay (NCI).
#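 Abbreviation: GI50, concentration required for 50% inhibition of growth. The concentration for full growth arrest is given as TGI.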
# What was measured:
# Experiment in all cases: NCI tumour cell line growth inhibition, 384-well format
# SNB-19 CNS = system: SNB-19 CNS
# UO-31 renal = system: UO-31 renal
# HOP-92 NSCLC = system: HOP-92 NSCLC
# MOLT-4 leukemia = system: MOLT-4 leukemia
# HCT-15 colon = system: HCT-15 colon
# UACC-257 melanoma = system: UACC-257 melanoma
# OVCAR-5 ovarian = system: OVCAR-5 ovarian
# SF-268 CNS = system: SF-268 CNS
# K-562 leukemia = system: K-562 leukemia
# NCI-H23 lung = system: NCI-H23 lung
# MDA-MB-231 breast = system: MDA-MB-231 breast
# KM12 colon = system: KM12 colon
# SR leukemia = system: SR leukemia
# COLO 205 colon = system: COLO 205 colon
# SK-MEL-2 melanoma = system: SK-MEL-2 melanoma
# SNB-75 CNS = system: SNB-75 CNS
# CAKI-1 renal = system: CAKI-1 renal
# HT29 colon = system: HT29 colon
# MCF7 breast = system: MCF7 breast
# TK-10 renal = system: TK-10 renal
# SW-620 colon = system: SW-620 colon
# UACC-62 melanoma = system: UACC-62 melanoma
# HCT-116 colon = system: HCT-116 colon
# OVCAR-8 ovarian = system: OVCAR-8 ovarian
# RPMI-8226 leukemia = system: RPMI-8226 leukemia
# SK-MEL-28 melanoma = system: SK-MEL-28 melanoma
# PC-3 prostate = system: PC-3 prostate
# A549 NSCLC = system: A549 NSCLC
# HL-60(TB) leukemia = system: HL-60(TB) leukemia
# CCRF-CEM leukemia = system: CCRF-CEM leukemia
# 786-0 renal = system: 786-0 renal
# T-47D breast = system: T-47D breast
# RXF 393 renal = system: RXF 393 renal
# HCC-2998 colon = system: HCC-2998 colon
# A498 renal = system: A498 renal
# NCI-H226 lung = system: NCI-H226 lung
# LOX IMVI melanoma = system: LOX IMVI melanoma
# MDA-MB-435 melanoma = system: MDA-MB-435 melanoma
# SF-539 CNS = system: SF-539 CNS
# OVCAR-4 ovarian = system: OVCAR-4 ovarian
# MALME-3M melanoma = system: MALME-3M melanoma
# SN12C renal = system: SN12C renal
# EKVX NSCLC = system: EKVX NSCLC
# M14 melanoma = system: M14 melanoma
# BT-549 breast = system: BT-549 breast
# ACHN renal = system: ACHN renal
# NCI-H322M lung = system: NCI-H322M lung
smiles,measurement,setting,value
C=CC(=O)Nc1cc(C)ccc1Nc1nc(Nc2cc(OC)ncc2C)ncc1C(F)(F)F,GI50,SNB-19 CNS,786 nM
same,TGI,SNB-19 CNS,3430 nM
same,GI50,UO-31 renal,394 nM
same,TGI,UO-31 renal,2880 nM
same,GI50,HOP-92 NSCLC,282 nM
same,TGI,HOP-92 NSCLC,700 nM
same,GI50,MOLT-4 leukemia,879 nM
same,TGI,MOLT-4 leukemia,2150 nM
same,GI50,HCT-15 colon,857 nM
same,TGI,HCT-15 colon,9300 nM
same,GI50,UACC-257 melanoma,117 nM
same,TGI,UACC-257 melanoma,390 nM
same,GI50,OVCAR-5 ovarian,279 nM
same,TGI,OVCAR-5 ovarian,1500 nM
same,GI50,SF-268 CNS,1500 nM
same,TGI,SF-268 CNS,5940 nM
same,GI50,K-562 leukemia,1520 nM
same,TGI,K-562 leukemia,> 100000 nM
same,GI50,NCI-H23 lung,192 nM
same,TGI,NCI-H23 lung,661 nM
same,GI50,MDA-MB-231 breast,283 nM
same,TGI,MDA-MB-231 breast,1100 nM
same,GI50,KM12 colon,444 nM
same,TGI,KM12 colon,> 100000 nM
same,GI50,SR leukemia,1790 nM
same,TGI,SR leukemia,3180 nM
same,GI50,COLO 205 colon,75.3 nM
same,TGI,COLO 205 colon,1120 nM
same,GI50,SK-MEL-2 melanoma,113 nM
same,TGI,SK-MEL-2 melanoma,271 nM
same,GI50,SNB-75 CNS,336 nM
same,TGI,SNB-75 CNS,1290 nM
same,GI50,CAKI-1 renal,401 nM
same,TGI,CAKI-1 renal,1440 nM
same,GI50,HT29 colon,340 nM
same,TGI,HT29 colon,1520 nM
same,GI50,MCF7 breast,690 nM
same,TGI,MCF7 breast,4130 nM
same,GI50,TK-10 renal,328 nM
same,TGI,TK-10 renal,884 nM
same,GI50,SW-620 colon,405 nM
same,TGI,SW-620 colon,1680 nM
same,GI50,UACC-62 melanoma,59.9 nM
same,TGI,UACC-62 melanoma,381 nM
same,GI50,HCT-116 colon,206 nM
same,TGI,HCT-116 colon,562 nM
same,GI50,OVCAR-8 ovarian,1120 nM
same,TGI,OVCAR-8 ovarian,4190 nM
same,GI50,RPMI-8226 leukemia,232 nM
same,TGI,RPMI-8226 leukemia,1170 nM
same,GI50,SK-MEL-28 melanoma,86.6 nM
same,TGI,SK-MEL-28 melanoma,387 nM
same,GI50,PC-3 prostate,1970 nM
same,TGI,PC-3 prostate,99700 nM
same,GI50,A549 NSCLC,569 nM
same,TGI,A549 NSCLC,2050 nM
same,GI50,HL-60(TB) leukemia,136 nM
same,TGI,HL-60(TB) leukemia,1070 nM
same,GI50,CCRF-CEM leukemia,1710 nM
same,TGI,CCRF-CEM leukemia,3400 nM
same,GI50,786-0 renal,853 nM
same,TGI,786-0 renal,> 100000 nM
same,GI50,T-47D breast,813 nM
same,TGI,T-47D breast,5380 nM
same,GI50,RXF 393 renal,215 nM
same,TGI,RXF 393 renal,766 nM
same,GI50,HCC-2998 colon,123 nM
same,TGI,HCC-2998 colon,376 nM
same,GI50,A498 renal,479 nM
same,TGI,A498 renal,1900 nM
same,GI50,NCI-H226 lung,228 nM
same,TGI,NCI-H226 lung,1810 nM
same,GI50,LOX IMVI melanoma,169 nM
same,TGI,LOX IMVI melanoma,423 nM
same,GI50,MDA-MB-435 melanoma,253 nM
same,TGI,MDA-MB-435 melanoma,1510 nM
same,GI50,SF-539 CNS,362 nM
same,TGI,SF-539 CNS,1550 nM
same,GI50,OVCAR-4 ovarian,394 nM
same,TGI,OVCAR-4 ovarian,7500 nM
same,GI50,MALME-3M melanoma,16.1 nM
same,TGI,MALME-3M melanoma,65.8 nM
same,GI50,SN12C renal,321 nM
same,TGI,SN12C renal,2180 nM
same,GI50,EKVX NSCLC,300 nM
same,TGI,EKVX NSCLC,1620 nM
same,GI50,M14 melanoma,35.5 nM
same,TGI,M14 melanoma,194 nM
same,GI50,BT-549 breast,300 nM
same,TGI,BT-549 breast,1020 nM
same,GI50,ACHN renal,374 nM
same,TGI,ACHN renal,1820 nM
same,GI50,NCI-H322M lung,570 nM
same,TGI,NCI-H322M lung,3890 nM
